Measured values published in patent EP0405748A1, “Phosphonoderivative of purine with antiviral activity” (Beecham Group p.l.c., priority 1989, dated 1991).
In brackets after ≈: the same amount, converted by molar mass. Where two headings read alike, the source gives them in different places.

Legend:
Format in all cases: cell-based
[1] = tested on: varicella zoster virus (VZV; Ellen strain); experiment: Plaque Reduction Test for Varicella Zoster Virus; settings: Human alphaherpesvirus 3, MRC5, MRC-5 cells, read-out: IC₅₀ against VZV
Experimental: MRC-5 cells were grown to confluence in 24 well multi-dishes (well diameter = 1.5cm). The drained cell monolayers were each infected with approximately 50 infectious particles of varicella zoster virus (VZV; Ellen strain) in 100µl of phosphate-buffered saline. The virus was adsorbed for 1 hour at room temperature. After adsorption, residual inoculum was removed from each well and replaced with 0.5ml of Eagle's MEM containing 5% heat-inactivated foetal calf serum and 0.9% agarose (A37). Once the agarose had set, dilutions of the test compound, which had been prepared in Eagle's MEM (containing 5% heat-inactivated foetal calf serum), were added, each well receiving 0.5ml of liquid overlay. The test compound was diluted to give the following series of concentrations: 200, 60, 20, 6....0.06µg/ml; final concentrations in the assay ranged, therefore, between 100µg/ml and 0.03µg/ml. The infected cultures were incubated at 37 °C in a humidified atmosphere of 5% CO₂ until plaques were clearly visible (5 or 6 days).
(§1) Cultures from 1 and 2 were fixed in formal saline, the agarose overlays were carefully washed off, and then the cell monolayers were stained with carbol fuchsin. A stereo microscope was used to count plaques. The IC₅₀ (concentration of drug which inhibits the number of plaques formed by 50% relative to the number of plaques observed in virus control monolayers) of the test compound was calculated. In addition, the monolayers were examined for evidence of drug-induced cytotoxicity; the minimum concentration at which cytotoxicity occurred was recorded.

[2] = tested on: herpes simplex virus 2 (HSV-2; strain MS); experiment: Plaque Reduction Test for Herpes Simplex Virus 2; settings: Human alphaherpesvirus 2, Vero or MRC-5 cells, read-out: IC₅₀ against HSV-2
Experimental: (§2) Vero or MRC-5 cells were grown to confluence in 24 well multi-dishes (well diameter = 1.5cm). The drained cell monolayers were each infected with approximately 50 infectious particles of herpes simplex virus 1 (HSV-1; HFEM strain) or herpes simplex virus 2 (HSV-2; strain MS) in 100µl of phosphate-buffered saline. The virus was adsorbed for 1 hour at room temperature. After adsorption, residual inoculum was removed from each well and replaced with 0.5ml of Eagle's MEM containing 5% newborn calf serum and 0.9% agarose (A37). Once the agarose had set, dilutions of the test compound, which had been prepared in Eagle's MEM (containing 5% newborn calf serum), were added, each well receiving 0.5ml of liquid overlay. The test compound was diluted to give the following series of concentrations: 200, 60, 20, 6....0.06µg/ml; final concentrations in the assay ranged, therefore, between 100µg/ml and 0.03µg/ml. The infected cultures were incubated at 37 °C in a humidified atmosphere of 5% CO₂ until plaques were clearly visible (2 or 3 days for Vero cells, usually 1 day for MRC-5 cells).
as §1

[3] = tested on: cytomegalovirus (CMV; AD-169 strain); experiment: Plaque Reduction Test for Cytomegalovirus; settings: Human betaherpesvirus 5, AD169, MRC5, MRC-5 cells, read-out: IC₅₀ against CMV
Experimental: MRC-5 cells were grown to confluence in 24 well multi-dishes (well diameter = 1.5cm). The drained cell monolayers were each infected with approximately 50 infectious particles of cytomegalovirus (CMV; AD-169 strain) in 100µl of phosphate-buffered saline. The virus wasadsorbed for 1 hour at room temperature. After adsorption, residual inoculum was removed from each well and replaced with 1ml of Eagle's MEM containing 10% heatinactivated foetal calf serum and 0.9% agarose (A37). Once the agarose had set, dilutions of the test compound, which had been prepared in Eagle's MEM (containing 10% heat-inactivated calf serum), wereadded, each well receiving 1ml of liquid overlay. The test compound was diluted to give the following series of concentrations: 200, 60, 20, 6....0.06µg/ml; final concentrations in the assay range, therefore, between 100µg/ml and 0.03µg/ml. The infected cultures were incubated at 37 °C in a humidified atmosphere containing 5% CO₂ until plaques were clearly visible (about 12days). The cultures are fixed in formol saline, the agarose overlays were carefully washed off, and then the cell monolayers were stained with carbol fuchsin. A stereo microscope was used to count plaques. The IC₅₀ (concentration of drug which inhibits the number of plaques formed by 50% relative to the number of plaques observed in virus control monolayers) of the test compound was calculated. In addition, the monolayers were examined for evidence of drug-induced cytotoxicity; the minimum concentration at which cytotoxicity occurs was recorded.

[4] = tested on: HIV-1 strain virus; experiment: HIV Suppression test in peripheral human lymphocytes (p24 ELISA and viral RNA hybridisation); settings: Human immunodeficiency virus 1, Lymphocyte; for inhibition at 1 µM: Concn. 1 µM; for inhibition at 10 µM: Concn. 10 µM
Experimental: Peripheral human lymphocytes were prepared, cultivated, and harvested as above. Following the determination of the lymphocyte surface markers, unstimulated and mitogen stimulated cells were combined in a ratio of 1:2.
Under safety conditions these cells are infected with a standard preparation of HIV. The cells are sedimented by centrifugation. The supernatant was discarded and cells were resuspended in the HIV inoculum.
This inoculum is a liquid suspension of HIV-1 strain virus, pretested and adjusted to a titer that results in a synthesis of viral core protein p24 of >100 ng/ml at day four following infection of human lymphocytes according to the protocol.
3x10⁸ lymphocytes were resuspended in 1 ml HIV inoculum and incubated at 37 °C for 60 minutes. Subsequently, the cells were washed two times with 50 ml of culture medium and resuspended in culture medium containing 10 units/ml of human recombinant interleukin-2 to yield a cell concentration of 2x10⁶ cells/ml. 100µl of this cell suspension was added to each well of the microtiter plates containing the diluted solutions of the compounds. The microtiter plates were cultivated in an incubator with a humidified atmosphere and 5% CO₂ at 37 °C.
Accordingly, a fraction of lymphocytes was mock-infected with the same virus preparation that was heat inactivated (30 minutes at 56 °C) prior to infection.
On each of the days 2,3 and 4 post infection one of the microtiter plates which had been established in triplicate was prepared for determination of viral replication. Viral RNA is determined within the cells whereas the viral core protein p24 was detected in the supernatant of the lymphocyte culture.
Accordingly, 150 µl of supernatant were removed from each well and transferred to the well of a microtiter plate containing 50 µl/well of SDS (sodium dodecylsulfate, 0.08%). These plates were stored frozen. 50 µl of stop solution (1% SDS, 20mM sodium acetate, pH 5.0, and 200 µg/ml heparin) were added to the cells remaining in each well. The plates were stored frozen.
The concentration of p24 synthesized by the HIV infected cells was determined by means of a sandwich ELISA, while the concentration of viral RNA was quantitated by nucleic acid hybridisation, using a ³²P-labelled DNA probe for the gag/pol region of the viral genome. Absolute levels of viral antigen and RNA in drug treated samples were compared with untreated, virus-infected controls and the percentage inhibition calculated.

[5] = tested on: herpes simplex virus 1 (HSV-1; HFEM strain); experiment: Plaque Reduction Test for Herpes Simplex Virus 1; settings: Human alphaherpesvirus 1, Vero or MRC-5 cells, read-out: IC₅₀ against HSV-1 virus
Experimental: as §2, §1

[6] = 72 h, viral RNA, Day 3 after infection, read-out: % Inhibition on Days 3 and 4 after infection Viral RNA Day 3
[7] = 72 h, viral core protein p24, Day 3 after infection, read-out: % Inhibition on Days 3 and 4 after infection Viral Anitgen Day 3
[8] = 96 h, viral RNA, Day 4 after infection, read-out: % Inhibition on Days 3 and 4 after infection Viral RNA Day 4
[9] = 96 h, viral core protein p24, Day 4 after infection, read-out: % Inhibition on Days 3 and 4 after infection Viral Anitgen Day 4

Row | SMILES | IC50 [1] [µg/mL] | IC50 [2] [µg/mL] | IC50 [3] [µg/mL] | inhibition at 1 µM [4, 6] [%] | inhibition at 1 µM [4, 7] [%] | inhibition at 1 µM [4, 8] [%] | inhibition at 1 µM [4, 9] [%] | IC50 [5] [µg/mL] | inhibition at 10 µM [4, 6] [%] | inhibition at 10 µM [4, 7] [%] | inhibition at 10 µM [4, 8] [%] | inhibition at 10 µM [4, 9] [%]
1 | Nc1nc2c(ncn2OC[C@@H](CO)OCP(=O)(O)O)c(=O)[nH]1 [Example 1, (R)-9-[3-Hydroxy-2-(phosphonomethoxy)propoxy]quanine] | 17 (≈ 50.7 µM) | 10 (≈ 29.8 µM) | 3 (≈ 8.95 µM) | 73 | 100 | 54 | 35 | 7 (≈ 20.9 µM) | – | – | – | –
2 | Nc1nc2c(ncn2OC[C@H]2COP(=O)(O)CO2)c(=O)[nH]1 [Example 2, (S)-9-[(2-Hydroxy-2-oxo-1,4,2-dioxaphosphorinan-5-yl)methoxy]quanine] | 13 (≈ 41 µM) | 15 (≈ 47.3 µM) | 3 (≈ 9.46 µM) | – | – | – | – | 21 (≈ 66.2 µM) | 92 | 100 | 32 | 33
3 | Nc1ncnc2c1ncn2OC[C@@H](CO)OCP(=O)(O)O [Example 3, (R)-9-[3-Hydroxy-2-(phosphonomethoxy)propoxy]adenine] | – | – | – | – | – | – | – | – | 83 | 80 | 90 | 91
4 | Nc1nc2c(ncn2OC[C@H](CO)OCP(=O)(O)O)c(=O)[nH]1 [Example 4, (S)-9-[3-Hydroxy-2-(phosphonomethoxy)propoxy]quanine] | 52 (≈ 155 µM) | 23 (≈ 68.6 µM) | 29 (≈ 86.5 µM) | 10 | 54 | 14 | 15 | 25 (≈ 74.6 µM) | – | – | – | –
5 | Nc1nc2c(ncn2OC[C@@H]2COP(=O)(O)CO2)c(=O)[nH]1 [Example 5, (R)-9-[(2-Hydroxy-2-oxo-1,4,2-dioxaphosphorinan-5-yl)methoxy]quanine] | 24 (≈ 75.7 µM) | 36 (≈ 113 µM) | 17 (≈ 53.6 µM) | – | – | – | – | 73 (≈ 230 µM) | 64 | 50 | 0 | 7
